# Source: patent publication US11274144B2, “Compositions and methods for the removal of biofilms” (priority 2013, dated 2022)
# B1: TRL1338: antibody, HC SEQ ID NO: 445, LC SEQ ID NO: 446 (antibody, V domains shown)
# VH: QVQLTLRESGPTLVKPTQTLTLTCTFSGFSLSTNGVGVGWIRQPPGKALEWLAIIYWDDDKRYSPSLKSRLTITKDTSKNQVVLTLTNMDPVDTGTYYCAHILGASNYWTGYLRYYFDYWGQGTLVTVST
# VL: DIEMTQSPSVSVSPGQTARITCSGEPLAKQYAYWYQQKSGQAPVVVIYKDTERPSGIPERFSGSSSGTTVTLTISGVQAEDEADYHCESGDSSGTYPVFGGGTKLTVL
# B2: TRL295: antibody, HC SEQ ID NO: 413, LC SEQ ID NO: 414 (antibody, V domains shown)
# VH: QVQLVESGGGLVQPGGSLRLSCAASGFPFSSYAMSWVRQAPGKGLEWVSAISGNGADSYYADSVKGRFTTSRDKSKNTVYLQMNRLRAEDTAVYYCAKDMRRYHYDSSGLHFWGQGTLVTVSS
# VL: DIELTQAPSVSVYPGQTARITCSGDALPKQYAYWYQQKPGQAPVVVIYKDSERPSGISERFSGSSSGTTVTLTISGVQAGDEADYYCQSVDTSVSYYVVFGGGTKLTVL
# B3: TRL1330: antibody, HC SEQ ID NO: 439, LC SEQ ID NO: 440 (antibody, V domains shown)
# VH: QVQLVESGTEVKNPGASVKVSCTASGYKFDEYGVSWVRQSPGQGLEWMGWISVYNGKTNYSQNFQGRLTLTTETSTDTAYMELTSLRPDDTAVYYCATDKNWFDPWGPGTLVTVSS
# VL: DIVLTQSPSASGSPGQSITISCTGTNTDYNYVSWYQHHPGKAPKVIIYDVKKRPSGVPSRFSGSRSGNTATLTVSGLQTEDEADYYCVSYADNNHYVFGSGTKVTVL
# What was measured:
# [1] = BIACORE epitope mapping with antiserum of chinchillas immunized with IHF pre-complexed to DNA; assay type: binding, chinchilla; settings: BIACORE biosensor
# Text: (§1) To test this hypothesis, additional cohorts of chinchillas were immunized with either native full length IHF from E. coli (obtained from Nash) or with native full length IHF from E. coli (obtained from Nash) that had been complexed to an excess of double stranded DNA in order to best mimic how it would be presented in nature.
# NTHI biofilms = assay: synergism on pre-formed NTHI biofilms (FIGS. 14A-14C); assay type: cell-based
# Protocol: To this end the ability to induce augmented structural destabilization of pre-formed NTHI biofilms was assessed when a sub-optimal concentration of anti-IHF was used along with one of each of three unique reagents.
# [2] = BIACORE epitope mapping with antiserum of chinchillas immunized with native IHF; assay type: binding, chinchilla; settings: BIACORE biosensor
# Text: as §1
# IHF = target: T1, IHF (Escherichia coli, UniProt P0A6X7+P0A6Y1); assay: antibody response after subcutaneous immunization of chinchillas (Western blot, ELISA); assay type: in vivo, E. coli; settings: chinchilla
# T1 construct: IHF promoter purified from E. coli K12 (the full length combination of both IHF subunits); made in house; host or cells: E. coli overproducing strains (lambda PL promoter plasmids, e.g. K5746 / E738)
# T1 sequence (P0A6X7 2-99): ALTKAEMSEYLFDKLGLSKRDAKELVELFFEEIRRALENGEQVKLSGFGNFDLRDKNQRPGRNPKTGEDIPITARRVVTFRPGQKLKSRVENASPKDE
# T1 sequence (P0A6Y1 whole entry): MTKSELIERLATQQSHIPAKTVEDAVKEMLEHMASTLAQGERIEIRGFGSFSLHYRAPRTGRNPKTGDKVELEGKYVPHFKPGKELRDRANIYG
# Text: Each animal received a priming dose followed by two identical boosts delivered at 30-day intervals.
# dsDNA = settings: DNA (10 μM) to IHF (5 μM); FIG. 11
# Protocol: Middle ears were again subsequently scored from 0 to 4+ for disease severity upon completion of the study. To better assure that the IHF and DNA remained in complex for immunization, synthetic oligonucleotides identical to those used in the published co-crystallization study (see for e.g., Rice et al. (1996) Cell 87(7): 1295-1306) of a high affinity IHF binding site from the bacteriophage lambda recombination site attP at a molar ratio of 2:1 [DNA (10 μM) to IHF (5 μM)] was used.
# NTHI strain 86-028NP = test system: NTHI strain 86-028NP
# Protocol: 48 adults were ordered from Rauscher's Chinchilla Ranch (LaRue, Ohio) and were acclimated to the vivarium for 7-10 days prior to the beginning of the study. Prior to TB [transbullar or direct challenge into the middle ear cavity] challenge, baseline otoscopy and tympanometry were performed as well as a limited volume prebleed to collect serum. Chinchillas were anesthetized and 300 μl of NTHI (strain #86-028NP) suspension containing approximately 1000 cfu were introduced into the middle ear space via transbullar challenge. Animals were allowed to recover, then monitored daily for adverse reactions as per IACUC accepted animal use protocols. Routine otoscopy and tympanometry were performed every 2-3 days throughout the study.
# Four days after challenge (day +4), chinchillas were anesthetized and a CT scan was performed to visualize biofilms present within the middle ear and to obtain pre-immunization images. The surface of the pinnae were cleaned and hydrated by wiping with a sterile gauze pad moistened with sterile pyrogen free saline. After ˜2 minutes (to allow the pinnae to dry), 50 μl of either the dmLT, IHF (purified E. coli IHF according to Experiment 1)+dmLT, or IHF+rsPiLA+dmLT solution will be added to the pinna and gently massaged in. Three chinchillas per cohort were sacrificed and tissues/samples collected (on days +4, and +11) to begin to determine mechanism of action.
# Eleven days after challenge (day +11), the secondary immunization occurred as described above wherein the pinnae are cleaned/hydrated and immunogens were topically administered. Three chinchillas per cohort were sacrificed and tissues/samples collected to begin to determine mechanism of action.
# Eighteen days after challenge (day +18), chinchillas were anesthetized and a CT scan were performed to identify any biofilms present, as well as to compare to the pre-immunization CT scans. The animals were then bled to collect serum and euthanized. […] Images were collected and the bulla were washed with 1 ml of sterile saline and re-imaged. The mucosa, along with any biofilm present, were collected from the right bulla and placed in a preweighed tube. These tissues were homogenized, serially diluted, and plated to determine cfu NTHI/mg wet weight tissue. The left bullae were filled with OCT compound and snap frozen for histological analysis.
# Images of the left and right middle ear cavities, with resident biofilms, were scrambled and two images per animal were compiled into a single file for ranking by blinded evaluators. The relative amount of biomass remaining within the middle ear of each animal was ranked on a 0 to 4+ scale by blinded reviewers using the scale shown in Table 6 below. Titer ELISAs, cytokine arrays, and Biacore were run on the serum as well as on the collected middle ear effusions. The OCT embedded middle ears were sectioned and stained either for basic morphology and architecture (H&E) or for the presence of IHF using immunohistochemistry and/or immunofluorescence.
# For the second animal immunization study, twenty adult chinchillas (body mass between 500-700 g), shown to have no evidence of middle ear disease by tympanometry and video otoscopy, were enrolled and divided into four cohorts of 5 animals each. All animals were again challenged transbullarly with approximately 1000 CFU NTHI strain 86-028NP per bulla. Four days later, after a biofilm formed in the middle ear cavities of these animals, they were immunized by a transcutaneous route (TCI) as described above. Formulations consisted of either: 10 μg IHF admixed with 10 μg dmLT, 10 μg IHF that had been pre-bound to DNA+dmLT, DNA+dmLT, or 10 μg dmLT alone.
# Middle ears were again subsequently scored from 0 to 4+ for disease severity upon completion of the study.
# Staphylococcus aureus HU = Staphylococcus aureus HU (Staphylococcus aureus, UniProt Q5HFV0); settings: cited from earlier work
# [3] = target: Haemophilus influenzae IHF (Haemophilus influenzae, UniProt P43723); settings: also known as IhfA5; cited from earlier work
# [4] = amoxicillin 64 μg/ml, IHF antisera 1:50 dilution
# [5] = first study, transcutaneous immunization
molecule,measurement,setting,value
"FLEEIRLSLESGQDVKLSGF (listed as Haemophilus influenzae) [A3, amino acids 31 to 50 of IHF]",immune recognition of 20-mer peptides,[1],greatest recognition
CC1(C)S[C@@H]2[C@H](NC(=O)[C@H](N)c3ccc(O)cc3)C(=O)N2[C@H]1C(=O)O [amoxicillin],"bacterial cell death in biofilm (vital dye, FIG. 14C)",NTHI biofilms; [4],limited bacterial cell death
same,effect on architecture/height of pre-formed NTHI biofilm (FIG. 14C),NTHI biofilms; [4],no measurable effect on the architecture
DNase,effect on pre-formed NTHI biofilm (FIG. 14A),"NTHI biofilms; DNase at sub-optimal concentration, anti-IHF 1:200 dilution",marginal effect
"RGFGSFSLHHRQPRLGRNPK (listed as Haemophilus influenzae) [B4, 46 to 65 of IHF]",immune recognition of 20-mer peptides,[2],greatest immune recognition
"E. coli IHF: purified E. coli integration host factor, full length combination of both subunits, used as immunogen with adjuvant",reciprocal titer versus isolated IHF by ELISA,"IHF; SQ immunization 10 μg with MPL, pre-immune reciprocal titers 100",8000
same,antibodies recognizing IHF by Western blot,"IHF; SQ immunization with MPL, FIG. 13",strong immune response to isolated IHF
same,binding of dsDNA (reduced mobility),dsDNA,bound dsDNA
same,mean score for remaining biomass within the middle ears,"NTHI strain 86-028NP; first study, 2 weekly transcutaneous immunizations with dmLT adjuvant, day 18 after challenge, adjuvant only 2.8, 0 to 4+ scale",1.5
same,bacterial load within remaining biomass,"NTHI strain 86-028NP; first study, homogenized biomass cultured on chocolate agar, vs adjuvant alone, FIG. 10B",statistically significant reduction of bacterial load
same,immune response to immunization,NTHI strain 86-028NP; [5],strong local and systemic immune response
same,secondary sequelae of immunization noted upon necropsy,NTHI strain 86-028NP; [5],no animal presented with obvious secondary sequelae
same,resolution of experimental otitis media,NTHI strain 86-028NP; in vivo,eradicating experimental otitis media significantly earlier than controls
same,mean residual middle ear biomass score,"NTHI strain 86-028NP; second study, TCI, 10 μg with 10 μg dmLT, adjuvant alone 2.2, 0 to 4+ scale, FIG. 12",0.9
"RPGRNPKTGDVVPVSARRVV (listed as Haemophilus influenzae) [A5, amino acids 61 to 80 of IHF]",immune recognition of 20-mer peptides,[2],greatest immune recognition
B1,binding for fragment VPAFKAGKALKDAVK,Staphylococcus aureus HU; SEQ ID NO: 456,high affinity binding
B2,epitope bound,[3],bind to residues 61-80
B3,binding for fragment […],Staphylococcus aureus HU; SEQ ID NO: 455,high affinity binding
